Ends that are not written are not given here. * marks the point of attachment. SO3H = O=S(=O)(O)*
Assays:
[1] = tested on: normal human keratinocytes (NHEKs); assay: DNA microarray of mRNA expression in stimulated normal human keratinocytes; type: cell-based; details: histamine 10 μM/mL, SLIGRL-NH2 100 nM
Protocol: For DNA microarray analysis, total RNA was extracted from NHEKs with the RNeasy Mini Kit (QIAGEN, Valencia, Calif.). Images obtained from a plate reader were analyzed with DNASIS Array (DNA CHIP RESERCH Inc., Hitachi Software Engineering, Tokyo, Japan), according to the manufacturer's instructions.
The values are log2 (mRNA expression level of each stimulated sample/expression level of the control).

ICR mice = assay: SP-induced scratch behavior in ICR mice; type: in vivo, mouse; details: transdermal, 0.5 nmol/site in acetone/olive (3:1), tape-stripped skin, 3-4 minutes before SP 100 nmol/site intradermal; FIG. 3
Protocol: Since it is considered that external administration of CCK affects keratinocytes, at first, CCK2R agonist was administered transdermally (applying the solution prepared using acetone-olive (3:1)) to itch-related behavior model (ICR mice administered intradermally with SP (100 nmol)).
The hair was clipped over the rostral part of the murine back one or two days prior to experiment. Before behavioral recording, each mouse (4 animals per observation) was put into an acrylic cage (18×23×11 cm) for at least 1 hr for acclamation. An intradermal injection of SP (100 nmol in normal saline per site) induces scratching of the skin around the injected site by the hind paws in mice. CCKs were topically applied in the two ways, percutaenous application and intradermal injection. For percutaneous application, the shaved back skin was stripped with Scotch tape (3M) 6 times the day before the experiment. The mice were painted on the clipped back with 20 μL CCK (0.5 nmol/site) in acetone/olive (3:1) 3-4 minutes before SP injection (100 nmol/site). […] Immediately after treatment, the animals were put back into the same cage and their behavior was videotaped using a digital video camera for 40 minutes. The frequency of scratch toward the injected site by hind paws was counted for the first 20 minutes with the video.

CCK2R = assay: Western blotting of CCK2R in ICR mouse keratinocytes incubated with SP; type: cell-based; details: exposed to SP for 5 or 6 hours, FIG. 2a
Protocol: (§1) Keratinocytes from ICR mice were stimulated with SP (10^−8 M) in six-well plates (Corning Glass Works) for 0.5-24 hours, harvested with a rubber policeman, and subjected to extraction with RIPA buffer (Wako, Osaka, Japan; Tris-HCl (pH8.0), 150 mm sodium chloride, 0.5% (wt/vol) sodium deoxycholate, 0.1% (wt/vol) SDS, and 1.0% (wt/vol) NP-40 substitute). Protein samples (20 μg) were separated by 8% SDS-polyacrylamide gel electrophoresis and electroblotted onto polyvinylidene difluoride membranes for 2 hours at 180 mA. After blocking with skim milk solution, the membranes were incubated with rabbit anti-mouse CCK1R (SC-33220; 1:1,000, Santa Cruz, Santa Cruz, Calif.) polyclonal antibodies,or CCK2R (SC-33221; 1:1,000, Santa Cruz) polyclonal antibodies, and the reaction was detected with horseradish peroxidase—conjugated goat anti-rabbit IgG (1:3,000, Bio-Rad, Hercules, Calif.). […] Bands were quantified by densitometry with the help of a CS Analyzer version 2.0 (ATTO, Tokyo, Japan). […]
(§2) To determine the effect of SP on keratinocytes, ICR mouse keratinocytes were incubated with SP for 30 min to 24 hours and the expression of CCK2R and CCK1R were analyzed by western blotting. CCK2R was detected with antibodies as 78 kDa band, and increased in keratinocytes exposed to SP for 5 or 6 hours (FIG. 2a). […]

CCK1R = assay: Western blotting of CCK1R in ICR mouse keratinocytes incubated with SP; type: cell-based; details: SP 30 min to 24 hours, FIG. 2b
Protocol: as §1, §2

Compound | ACTL7B mRNA, log2 (expression level of stimulated sample/expression level of the control) ([1]; NHEKs, Ca 0.6 mM, SP 10^−6 M) | ANKRD6 mRNA, log2 (expression level of stimulated sample/expression level of the control) ([1]; NHEKs, Ca 0.6 mM, SP 10^−6 M) | BUB1B mRNA, log2 (expression level of stimulated sample/expression level of the control) ([1]; NHEKs, Ca 0.6 mM, SP 10^−6 M) | CCK2R mRNA, log2 (expression level of stimulated sample/expression level of the control) ([1]; NHEKs, Ca 0.6 mM, SP 10^−6 M) | FCN3 mRNA, log2 (expression level of stimulated sample/expression level of the control) ([1]; NHEKs, Ca 0.6 mM, SP 10^−6 M) | MAP3K1 mRNA, log2 (expression level of stimulated sample/expression level of the control) ([1]; NHEKs, Ca 0.6 mM, SP 10^−6 M) | MMP9 mRNA, log2 (expression level of stimulated sample/expression level of the control) ([1]; NHEKs, Ca 0.6 mM, SP 10^−6 M) | PDE7B mRNA, log2 (expression level of stimulated sample/expression level of the control) ([1]; NHEKs, Ca 0.6 mM, SP 10^−6 M) | PTN mRNA, log2 (expression level of stimulated sample/expression level of the control) ([1]; NHEKs, Ca 0.6 mM, SP 10^−6 M) | SERPINI2 mRNA, log2 (expression level of stimulated sample/expression level of the control) ([1]; NHEKs, Ca 0.6 mM, SP 10^−6 M) | scratch behavior (frequency of scratch, first 20 minutes) (ICR mice) | other results
NCCc1c[nH]cn1 [histamine, Histamine] | 0.63 log2 | 0.00 log2 | −1.09 log2 | −0.01 log2 | −0.23 log2 | 0.88 log2 | 4.02 log2 | 0.12 log2 | −0.14 log2 | 0.38 log2 |  | CKM mRNA, log2 (expression level of stimulated sample/expression level of the control) ([1]; NHEKs, Ca 0.6 mM, SP 10^−6 M): 1.04 log2; F10 mRNA, log2 (expression level of stimulated sample/expression level of the control) ([1]; NHEKs, Ca 0.6 mM, SP 10^−6 M): 1.36 log2; NDRG4 mRNA, log2 (expression level of stimulated sample/expression level of the control) ([1]; NHEKs, Ca 0.6 mM, SP 10^−6 M): 1.59 log2; changes in the expression levels of CCK2R in stimulated NHEKs [1]: no significant changes
Asp-Tyr-Met-Gly-Trp-Met-Asp-Phe-NH2 (DYMGWMDF-NH2) [CCK8, cholecystokinin analogue in which the tyrosine is not sulfated] |  |  |  |  |  |  |  |  |  |  | no significant reduction | 
Met-Gly-Trp-Met-Asp-Phe-NH2 (MGWMDF-NH2) [CCK6, cholecystokinin analogue without the tyrosine] |  |  |  |  |  |  |  |  |  |  | no significant reduction | 
Ser-Leu-Ile-Gly-Arg-Leu-NH2 (SLIGRL-NH2) [synthetic agonist of PAR-2] | 0.84 log2 | −0.17 log2 | 0.52 log2 | 0.06 log2 | −0.62 log2 | 0.64 log2 | 0.11 log2 | 1.00 log2 | 0.12 log2 | 0.72 log2 |  | ARG1 mRNA, log2 (expression level of stimulated sample/expression level of the control) ([1]; NHEKs, Ca 0.6 mM, SP 10^−6 M): 0.71 log2; CYP17A1 mRNA, log2 (expression level of stimulated sample/expression level of the control) ([1]; NHEKs, Ca 0.6 mM, SP 10^−6 M): 0.92 log2; changes in the expression levels of CCK2R in stimulated NHEKs [1]: no significant changes
Substance P [SP] | 0.99 log2 | 3.20 log2 | 3.06 log2 | 8.67 log2 | 4.50 log2 | 1.06 log2 | 1.12 log2 | 1.02 log2 | 4.04 log2 | 1.00 log2 |  | AR mRNA, log2 (expression level of stimulated sample/expression level of the control) ([1]; NHEKs, Ca 0.6 mM, SP 10^−6 M): 0.99 log2; ARG1 mRNA, log2 (expression level of stimulated sample/expression level of the control) ([1]; NHEKs, Ca 0.6 mM, SP 10^−6 M): 1.69 log2; CKM mRNA, log2 (expression level of stimulated sample/expression level of the control) ([1]; NHEKs, Ca 0.6 mM, SP 10^−6 M): 1.72 log2; CLEC7A mRNA, log2 (expression level of stimulated sample/expression level of the control) ([1]; NHEKs, Ca 0.6 mM, SP 10^−6 M): 1.16 log2; CYP17A1 mRNA, log2 (expression level of stimulated sample/expression level of the control) ([1]; NHEKs, Ca 0.6 mM, SP 10^−6 M): 1.40 log2; F10 mRNA, log2 (expression level of stimulated sample/expression level of the control) ([1]; NHEKs, Ca 0.6 mM, SP 10^−6 M): 1.74 log2; ICAM1 mRNA, log2 (expression level of stimulated sample/expression level of the control) ([1]; NHEKs, Ca 0.6 mM, SP 10^−6 M): 1.16 log2; NDRG4 mRNA, log2 (expression level of stimulated sample/expression level of the control) ([1]; NHEKs, Ca 0.6 mM, SP 10^−6 M): 1.00 log2; RASSF7 mRNA, log2 (expression level of stimulated sample/expression level of the control) ([1]; NHEKs, Ca 0.6 mM, SP 10^−6 M): 1.82 log2; SV2B mRNA, log2 (expression level of stimulated sample/expression level of the control) ([1]; NHEKs, Ca 0.6 mM, SP 10^−6 M): 1.54 log2; CCK2R expression (78 kDa band) in keratinocytes exposed to SP (CCK2R): increased; CCK1R expression in keratinocytes exposed to SP (CCK1R): not augmented
Tyr(SO3H)-Met-Gly-Trp-Met-Asp-Phe-NH2 (Y(SO3H)MGWMDF-NH2; N-terminus assumed; SMILES CSCC[C@H](NC(=O)[C@H](Cc1c[nH]c2ccccc12)NC(=O)CNC(=O)[C@H](CCSC)NC(=O)[C@@H](N)Cc1ccc(OS(=O)(=O)O)cc1)C(=O)N[C@@H](CC(=O)O)C(=O)N[C@@H](Cc1ccccc1)C(N)=O) [CCK7S, natural type cholecystokinin, tyrosine at seventh position from C-terminal sulfated] |  |  |  |  |  |  |  |  |  |  | significant reduction | 
Tyr-Met-Gly-Trp-Met-Asp-Phe-NH2 (YMGWMDF-NH2) [CCK7, cholecystokinin analogue in which the tyrosine is not sulfated] |  |  |  |  |  |  |  |  |  |  | no significant reduction | 

Source: patent US20120214743A1, “ITCH SUPPRESSANT” (University of Occupational and Environmental Health, Japan, priority 2009, published 2012)
